Assay results: US20100173910A1, “TRIAMINOPYRIMIDINE CYCLOBUTENEDIONE DERIVATIVES USED AS PHOSPHATASE CDC25 INHIBITORS” (IPDRN PHSTMS D.S.S., priority 2007, published 2010)

Assays:
[1] = target: T1, purified recombinant CDC25C enzyme (MBP-CDC25C protein) (Homo sapiens, UniProt P30307); test: Phosphatase activity of the purified recombinant CDC25C enzyme (OMFP dephosphorylation, fluorescence); assay type: biochemical; conditions: OMFP 500 μM, 4 hours at 30° C., three independent experiments; nested upper bounds; read-out: IC50 for the phosphatase activity of the purified recombinant CDC25-C enzyme
T1 construct: made in house
T1 sequence (P30307 1-473): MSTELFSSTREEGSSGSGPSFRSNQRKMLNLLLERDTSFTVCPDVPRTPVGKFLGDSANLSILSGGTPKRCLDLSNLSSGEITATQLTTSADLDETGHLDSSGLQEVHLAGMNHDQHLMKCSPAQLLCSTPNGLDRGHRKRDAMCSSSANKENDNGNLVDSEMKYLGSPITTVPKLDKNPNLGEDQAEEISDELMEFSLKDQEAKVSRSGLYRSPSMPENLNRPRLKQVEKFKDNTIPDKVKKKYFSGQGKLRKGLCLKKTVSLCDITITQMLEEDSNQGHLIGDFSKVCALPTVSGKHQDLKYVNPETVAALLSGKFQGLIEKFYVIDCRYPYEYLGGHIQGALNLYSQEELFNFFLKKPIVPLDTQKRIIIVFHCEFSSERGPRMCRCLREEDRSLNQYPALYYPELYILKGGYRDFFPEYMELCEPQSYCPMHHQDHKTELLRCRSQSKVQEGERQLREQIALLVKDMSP
Experimental: i) Determination of the Phosphatase Activity of the Purified Recombinant CDC25C Enzyme:
The phosphatase activity of the MBP-CDC25C protein is evaluated through its dephosphorylation of 3-O-methylfluorescein-phosphate (OMFP) to form 3-O-methylfluorescein (OMF), determining the fluorescence of the reaction product at 475 nm. This assay can be used to identify inhibitors of the recombinant CDC25 enzyme. The preparation of the MBP-CDC25C fusion protein is described in the PCT patent application published under the number WO 01/44467.
The reaction is performed in 384-well plates in a final volume of 50 μl. The MBP-CDC25C protein (prepared as described hereinabove) is stored in the following elution buffer: 20 mM Tris-HCl pH 7.4; 250 mM NaCl; 1 mM EDTA; 1 mM dithiothreitol (DTT); 10 mM maltose. It is diluted to a concentration of 60 μM in the following reaction buffer: 50 mM Tris-HCl pH 8.2; 50 mM NaCl; 1 mM DTT; 20% glycerol. The background noise is determined using with the buffer without adding the enzyme. The products are tested at decreasing concentrations from 40 μM. The reaction is initiated by the addition of OMFP solution to a final concentration of 500 μM (prepared immediately before use from a 12.5 mM stock solution in 100% DMSO (Sigma #M2629)). After 4 hours at 30° C. in a disposable 384-well plate, the fluorescence measured at OD 475 nm is read on a Victor^2 plate reader (EGG-Wallac). The concentration that produces 50% inhibition of the enzyme reaction is calculated from three independent experiments. Only the values that fall within the linear part of the sigmoid curve are used for the linear regression analysis.

[2] = tested on: DU 145 (human prostate carcinoma cells); test: Anti-proliferative activity, DU 145 cells (WST1 colorimetric test); assay type: cell-based; conditions: DU-145, 96 h, 96 hours treatment, up to 10 μM, nested upper bounds, read-out: IC50 for proliferation of the DU 145 cell lines
Experimental: (§1) ii) Characterisation of Anti-Proliferative Activity:
(§2) By way of an example, the effect of treating two human cell lines MIA PaCa-2 and DU 145 with the compounds of the examples described hereinbefore will be studied. The cell lines DU 145 (human prostate carcinoma cells) and MIA PaCa-2 (human pancreatic carcinoma cells) were obtained from the American Tissue Culture Collection (Rockville, Md., USA). A 96-well plate was inoculated on day 0 with cells in 80 μl of Dulbecco's modified Eagle's medium (Gibco-Brl, Cergy-Pontoise, France) with 10% heat-inactivated foetal calf serum (Gibco-Brl, Cergy-Pontoise, France), 50,000 units/l of penicillin and 50 mg/l of streptomycin (Gibco-Brl, Cergy-Pontoise, France) and 2 mM of glutamine (Gibco-Brl, Cergy-Pontoise, France). The cells were treated on day 1 for 96 hours with increasing concentrations of each test compound up to 10 μM. At the end of this period, cell proliferation is quantified by means of a colorimetric test based on cleavage of the tetrazolium salt WST1 by the mitochondrial dehydrogenases in the viable cells, resulting in formation of formazan (Boehringer Mannheim, Meylan, France). These tests are performed in duplicate with 8 determinations per concentration tested. For each test compound, the values within the linear part of the sigmoid curve were subjected to linear regression analysis and used to estimate the IC50 inhibitory concentration. The products are solubilised in dimethylsulfoxide (DMSO) at a concentration of 10^−2 M and used in culture with a final DMSO concentration of 0.1%.

[3] = tested on: MIA PaCa-2 (human pancreatic carcinoma cells); test: Anti-proliferative activity, MIA PaCa-2 cells (WST1 colorimetric test); assay type: cell-based; conditions: MIA PaCa-2, 96 h, 96 hours treatment, up to 10 μM, nested upper bounds, read-out: IC50 for proliferation of the MIA PaCa-2 cell lines
Experimental: as §1, §2

melting point	IC50 [1]	IC50 [2]	IC50 [3]	SMILES
176 to 180 °C	≤ 1 µM	≤ 10 µM	≤ 10 µM	CC(C)(C)OC(=O)NCc1ccc(Nc2c(NCCNc3cc(N4CCCC4)nc(N4CCCC4)n3)c(=O)c2=O)cc1 [Example 25, tert-butyl (4-{[2-({2-[(2,6-dipyrrolidin-1-ylpyrimidin-4-yl)amino]ethyl}amino)-3,4-dioxocyclobut-1-en-1-yl]amino}benzyl)carbamate]
> 250 °C	≤ 1 µM	≤ 10 µM	≤ 10 µM	N#Cc1ccc(Nc2c(NCCNc3cc(N4CCCC4)nc(N4CCCC4)n3)c(=O)c2=O)cc1 [Example 33, 3-({2-[(2,6-dipyrrolidin-1-ylpyrimidin-4-yl)amino]ethyl}amino)-4-[(4-cyanophenyl)amino]cyclobut-3-ene-1,2-dione]
